Results taken from ChEMBL document CHEMBL5223108, “Aiming to improve binding of porphyrin diphenyl guanidinium conjugates to guanine-quadruplexes: When size matters” (Bioorg Med Chem Lett, 2022).
Active and inactive are the calls of the source. The calls are words filed in the database; no cut-off is given here.

How the values were obtained:
Quadruplex DNA [1] = test: Binding affinity to c-KIT1 G4 quadruplex DNA (unknown origin) by CD spectroscopy analysis; format: nucleic-acid assay
Quadruplex DNA [2] = test: Binding affinity to 22AG_Na G4 quadruplex DNA (unknown origin) by CD spectroscopy analysis; format: nucleic-acid assay
Salmonidae = test: Binding affinity to salmon testes […] DNA assessed as change in melting temperature at 1:2 […] ratio by UV analysis (reference value: 66.6 degreeC)
Quadruplex DNA [3] = test: Binding affinity to c-KIT1 G4 quadruplex DNA (unknown origin) assessed as change in melting temperature at 1:2 G4:ligand ratio by UV analysis (reference value: 66.5 degreeC); format: nucleic-acid assay
Quadruplex DNA [4] = test: Binding affinity to KRAS G4 quadruplex DNA (unknown origin) assessed as change in melting temperature at 1:2 G4:ligand ratio by UV analysis (reference value: 48.7 degreeC); format: nucleic-acid assay
Quadruplex DNA [5] = test: Binding affinity to c-KIT2 G4 quadruplex DNA (unknown origin) assessed as change in melting temperature at 1:2 G4:ligand ratio by UV analysis (reference value: 59.1 degreeC); format: nucleic-acid assay
Quadruplex DNA [6] = test: Binding affinity to 23TA G4 quadruplex DNA (unknown origin) assessed as change in melting temperature at 1:2 G4:ligand ratio by UV analysis (reference value: 59.5 degreeC); format: nucleic-acid assay
Quadruplex DNA [7] = test: Binding affinity to 22AG_Na G4 quadruplex DNA (unknown origin) assessed as change in melting temperature at 1:2 G4:ligand ratio by UV analysis (reference value: 55.9 degreeC); format: nucleic-acid assay
Quadruplex DNA [8] = test: Binding affinity to 22AG_K G4 quadruplex DNA (unknown origin) assessed as change in melting temperature at 1:2 G4:ligand ratio by UV analysis (reference value: 60.1 degreeC); format: nucleic-acid assay
Quadruplex DNA [9] = test: Binding affinity to human c-KIT2 G4 quadruplex DNA assessed as change in melting temperature at 10 uM by UV analysis; format: nucleic-acid assay
Quadruplex DNA [10] = test: Binding affinity to human 22AG_Na G4 quadruplex DNA assessed as change in melting temperature at 10 uM by UV analysis; format: nucleic-acid assay
Quadruplex DNA [11] = test: Binding affinity to human c-KIT1 G4 quadruplex DNA assessed as change in melting temperature at 10 uM by UV analysis; format: nucleic-acid assay

| Activity (Quadruplex DNA [1]) | Activity (Quadruplex DNA [2]) | ΔTm (Salmonidae) | ΔTm (Quadruplex DNA [3]) | ΔTm (Quadruplex DNA [4]) | ΔTm (Quadruplex DNA [5]) | ΔTm (Quadruplex DNA [6]) | ΔTm (Quadruplex DNA [7]) | ΔTm (Quadruplex DNA [8]) | ΔTm (Quadruplex DNA [9]) | ΔTm (Quadruplex DNA [10]) | ΔTm (Quadruplex DNA [11]) | SMILES |
| --- | --- | --- | --- | --- | --- | --- | --- | --- | --- | --- | --- | --- |
| inactive | inactive | 0.02 °C | -7.84 °C | 2.91 °C | -1.49 °C | 2.42 °C | 10.2 °C | -1.05 °C | – | – | – | N=C(N)Nc1ccc(S(=O)(=O)c2ccc(NC(=N)NC(=O)Nc3ccc(-c4c5nc(c(-c6ccccc6)c6ccc([nH]6)c(-c6ccccc6)c6nc(c(-c7ccccc7)c7ccc4[nH]7)C=C6)C=C5)cc3)cc2)cc1 |
| – | – | – | – | – | – | – | – | – | > 20 °C | -4.9 °C | 1 °C | N=C(N)Nc1ccc(Sc2ccc(NC(=N)NC(=O)Nc3ccc(-c4c5nc(c(-c6ccccc6)c6ccc([nH]6)c(-c6ccccc6)c6nc(c(-c7ccccc7)c7ccc4[nH]7)C=C6)C=C5)cc3)cc2)cc1 |
| – | – | – | – | – | – | – | – | – | > 20 °C | -2.7 °C | 2.2 °C | N=C(N)Nc1ccc(Oc2ccc(NC(=N)NC(=O)Nc3ccc(-c4c5nc(c(-c6ccccc6)c6ccc([nH]6)c(-c6ccccc6)c6nc(c(-c7ccccc7)c7ccc4[nH]7)C=C6)C=C5)cc3)cc2)cc1 |
